Structures are written as SMILES.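 Protocol summary: plate cells (96-well), add compound at 5 concentrations, incubate 48 h, interpolate endpoints linearly. TGI is the concentration that stops growth completely.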

Here are results for five compounds from PubChem BioAssay (NCI).

Some test systems named below: 786-0 renal; BT-549 breast; DU-145 prostate; HOP-62 NSCLC; MOLT-4 leukemia; NCI-H23 lung; NCI-H522 lung; SF-268 CNS; SK-MEL-2 melanoma; SN12C renal; TK-10 renal; UO-31 renal.
Holding throughout (assay): NCI tumour cell line growth inhibition, 48 h

In the case of `O=C(Nc1cccc(C(=O)NCCCO)c1)/C(=C/c1ccccc1)NC(=O)c1ccccc1`, the TGI with 786-0 renal, in the test on BT-549 breast, in the test with DU-145 prostate, with HOP-62 NSCLC, in the test with MOLT-4 leukemia and in the test on NCI-H23 lung was above 100 µM throughout. The TGI in the test on NCI-H522 lung, with SF-268 CNS, with SK-MEL-2 melanoma, in the test on SN12C renal, in the test with TK-10 renal and in the test with UO-31 renal was above 100 µM throughout.
Turning to `CN(C)c1ccc(/C=C(\NC(=O)c2ccccc2)C(=O)Nc2cccc(C(=O)NCCCO)c2)cc1`, the TGI in the test with 786-0 renal, in the test with BT-549 breast, in the test with DU-145 prostate, in the test with HOP-62 NSCLC, with MOLT-4 leukemia and in the test with NCI-H23 lung was above 100 µM each time. For the same compound, the TGI in the test on NCI-H522 lung, with SF-268 CNS, in the test with SK-MEL-2 melanoma, in the test on SN12C renal, with TK-10 renal and with UO-31 renal was above 100 µM throughout.
On to `O=CN1CCC23CC(O)CCC2C1Cc1cc(Oc2nnnn2-c2ccccc2)cc(O)c13` (stereo not given), for which the TGI with 786-0 renal, in the test with BT-549 breast, in the test with DU-145 prostate, with HOP-62 NSCLC, with MOLT-4 leukemia and in the test with NCI-H23 lung was above 100 µM throughout. The TGI with NCI-H522 lung, in the test with SF-268 CNS, with SK-MEL-2 melanoma, with SN12C renal, with TK-10 renal and in the test on UO-31 renal was above 100 µM throughout.
On to `CC(C)(C)[Si](C)(C)OCC1OC(n2ccc(=O)[nH]c2=O)C(O[Si](C)(C)C(C)(C)C)[C@]12O[C@@H]2CO` (stereo not given in full), for which the TGI with 786-0 renal came to 44.6 µM; in the test with BT-549 breast it was 19.4 µM; in the test on DU-145 prostate, 38.1 µM; in the test on HOP-62 NSCLC, 30.2 µM; in the test on MOLT-4 leukemia it was 46.3 µM; in the test with NCI-H23 lung, 30.2 µM. Further, the TGI in the test on NCI-H522 lung came out at 29.7 µM; in the test on SF-268 CNS it was 42.5 µM; in the test with SK-MEL-2 melanoma it was 28.6 µM; in the test on SN12C renal it was 36.3 µM; in the test with TK-10 renal it was 31 µM; in the test on UO-31 renal, 21.7 µM.
For the compound `O=C1/C(=C/c2ccc(O)c(O)c2)CC/C1=C\c1ccc(O)c(O)c1`, the TGI was 38.2 µM in the test on 786-0 renal; 28.9 µM in the test with BT-549 breast; above 100 µM in the test with DU-145 prostate; 39 µM in the test on HOP-62 NSCLC; above 36.8 µM in the test on MOLT-4 leukemia; 11.3 µM in the test on NCI-H23 lung. Further, the TGI is 5.42 µM in the test on NCI-H522 lung; 26.7 µM in the test with SF-268 CNS; above 72.7 µM in the test with SK-MEL-2 melanoma; above 79.5 µM with SN12C renal; above 100 µM in the test with TK-10 renal; 7.31 µM with UO-31 renal.
